According to US10597388B2, “Pyridazinone herbicides” (FMC CORPORATION, priority 2014, dated 2020):

Key:
Format in all cases: in vivo
[1] = system: galium (catchweed bedstraw, Galium aparine); assay: Test A greenhouse herbicide test, postemergence; settings: for Galium plant response rating: 0 to 100 scale, 0 is no effect, 100 is complete control
Excerpt: (§1) At the same time, plants selected from these crop and weed species and also blackgrass (Alopecurus myosuroides), and galium (catchweed bedstraw, Galium aparine) were planted in pots containing the same blend of loam soil and sand and treated with postemergence applications of test chemicals formulated in the same manner. Plants ranged in height from 2 to 10 cm and were in the one- to two-leaf stage for the postemergence treatment. Treated plants and untreated controls were maintained in a greenhouse for approximately 10 d, after which time all treated plants were compared to untreated controls and visually evaluated for injury. Plant response ratings, summarized in Table A, are based on a 0 to 100 scale where 0 is no effect and 100 is complete control. A dash (-) response means no test result.

[2] = system: blackgrass (Alopecurus myosuroides); assay: Test A greenhouse herbicide test, postemergence; settings: for Blackgrass plant response rating: 0 to 100 scale, 0 is no effect, 100 is complete control
Excerpt: as §1

[3] = system: barnyardgrass (Echinochloa crus-galli); assay: Test A greenhouse herbicide test, pre- and postemergence
Excerpt: (§2) Seeds of plant species selected from barnyardgrass (Echinochloa crus-galli), kochia (Kochia scoparia), ragweed (common ragweed, Ambrosia elatior), ryegrass, Italian (Italian ryegrass, Lolium multiflorum), crabgrass, large (large crabgrass, Digitaria sanguinalis), foxtail, giant (giant foxtail, Setaria faberii), momingglory (Ipomoea spp.), pigweed (Amaranthus retroflexus), velvetleaf (Abutilon theophrasti), wheat (Triticum aestivum), and corn (Zea mays) were planted into a blend of loam soil and sand and treated preemergence with a directed soil spray using test chemicals formulated in a non-phytotoxic solvent mixture which included a surfactant.
as §1

[4] = system: kochia (Kochia scoparia); assay: as above
Excerpt: as §2, §1

[5] = system: wheat (Triticum aestivum); assay: as above; settings: Postemergence; for Wheat plant response rating: 0 to 100 scale, 0 is no effect, 100 is complete control
Excerpt: as §2, §1

[6] = system: ragweed (common ragweed, Ambrosia elatior); assay: as above
Excerpt: as §2, §1

[7] = system: corn (Zea mays); assay: as above; settings: Postemergence; for Corn plant response rating: 0 to 100 scale, 0 is no effect, 100 is complete control
Excerpt: as §2, §1

[8] = system: foxtail, giant (giant foxtail, Setaria faberii); assay: as above
Excerpt: as §2, §1

[9] = system: pigweed (Amaranthus retroflexus); assay: as above
Excerpt: as §2, §1

[10] = system: ryegrass, Italian (Italian ryegrass, Lolium multiflorum); assay: as above
Excerpt: as §2, §1

[11] = 125 g ai/ha, 0 to 100 scale where 0 is no effect and 100 is complete control
[12] = Postemergence, 125 g ai/ha, 0 to 100 scale where 0 is no effect and 100 is complete control
[13] = Postemergence, 500 g ai/ha, 0 to 100 scale, 0 is no effect, 100 is complete control
[14] = Preemergence, 125 g ai/ha, 0 to 100 scale where 0 is no effect and 100 is complete control
[15] = Preemergence, 500 g ai/ha, 0 to 100 scale, 0 no effect, 100 complete control
[16] = Preemergence, 500 g ai/ha, 0 to 100 scale where 0 is no effect and 100 is complete control
[17] = 500 g ai/ha, visual rating after approx. 10 d, 0 to 100 scale (0 no effect, 100 complete control)
[18] = Postemergence, 500 g ai/ha, visual rating after approx. 10 d, 0 to 100 scale (0 no effect, 100 complete control)
[19] = 125 g ai/ha, visual rating after approx. 10 d, 0 to 100 scale (0 no effect, 100 complete control)
[20] = Postemergence, 125 g ai/ha, visual rating after approx. 10 d, 0 to 100 scale (0 no effect, 100 complete control)

SMILES | Plant response rating, Galium [1, 11] | Galium plant response rating ([1]; 500 g ai/ha) | Plant response rating, Blackgrass [2, 11] | Blackgrass plant response rating ([2]; 500 g ai/ha) | Plant response rating, Barnyardgrass [3, 12] | Barnyardgrass plant response rating [3, 13] | Barnyardgrass plant response rating [3, 14] | Plant response rating, Barnyardgrass [3, 15] | Plant response rating, Kochia [4, 12] | Kochia plant response rating [4, 13] | Kochia plant response rating [4, 14] | Plant response rating, Kochia [4, 16] | Plant response rating, Wheat [5, 11] | Wheat plant response rating ([5]; 500 g ai/ha) | Plant response rating, Ragweed [6, 12] | Ragweed plant response rating [6, 14] | Foxtail, Giant plant response rating [8, 14] | Pigweed plant response rating [9, 14] | Plant response rating, Ryegrass, Italian [10, 12] | Ryegrass, Italian plant response rating [10, 14] | also measured
Cc1nn(C)c(=O)c(-c2cccc3ccc(C4CC4)cc23)c1O [Compound 71] | 70 | 90 | 30 | 40 | 0 | 20 | 0 | 20 | 50 | 70 | 0 | 20 | 0 | 20 | 70 | 0 | 0 | 30 | 30 | 0 | Ragweed plant response rating [6, 13]: 70; Plant response rating, Ragweed [6, 16]: 20; Plant response rating, Corn [7, 11]: 0; Corn plant response rating ([7]; 500 g ai/ha): 20; Plant response rating, Foxtail, Giant [8, 12]: 0; Foxtail, Giant plant response rating [8, 13]: 20; Plant response rating, Foxtail, Giant [8, 16]: 50; Plant response rating, Pigweed [9, 12]: 70; Pigweed plant response rating [9, 13]: 80; Plant response rating, Pigweed [9, 16]: 100; Ryegrass, Italian plant response rating [10, 13]: 90; Plant response rating, Ryegrass, Italian [10, 16]: 70
CC(=O)Oc1cnn(C)c(=O)c1-c1c(C)sc2ccccc12 [Compound 120] | 40 |  | 0 |  | 0 |  | 0 |  | 0 |  | 0 | 0 | 0 |  | 0 | 0 | 0 | 0 | 20 | 30 | Plant response rating, Galium [1, 17]: 70; Plant response rating, Blackgrass [2, 17]: 10; Plant response rating, Barnyardgrass [3, 18]: 10; Plant response rating, Barnyardgrass [3, 16]: 30; Plant response rating, Kochia [4, 18]: 30; Plant response rating, Wheat [5, 17]: 0; Plant response rating, Ragweed [6, 18]: 10; Plant response rating, Ragweed [6, 16]: 30; Plant response rating, Corn [7, 11]: 0; Plant response rating, Corn [7, 17]: 0; Plant response rating, Foxtail, Giant [8, 12]: 0; Plant response rating, Foxtail, Giant [8, 18]: 10; Plant response rating, Foxtail, Giant [8, 16]: 20; Plant response rating, Pigweed [9, 12]: 20; Plant response rating, Pigweed [9, 18]: 50; Plant response rating, Pigweed [9, 16]: 70; Plant response rating, Ryegrass, Italian [10, 18]: 80; Plant response rating, Ryegrass, Italian [10, 16]: 30
COc1nn(C)c(=O)c(-c2c(C)ccc3ccc(C)cc23)c1O [Compound 30] |  | 90 |  | 60 |  | 30 | 0 | 10 |  | 80 | 0 |  | 10 | 10 |  | 0 | 0 | 80 | 70 | 30 | Plant response rating, Galium [1, 19]: 70; Plant response rating, Blackgrass [2, 19]: 20; Plant response rating, Barnyardgrass [3, 20]: 0; Plant response rating, Kochia [4, 20]: 60; Plant response rating, Kochia [4, 15]: 40; Plant response rating, Ragweed [6, 20]: 40; Ragweed plant response rating [6, 13]: 70; Plant response rating, Ragweed [6, 15]: 70; Plant response rating, Corn [7, 19]: 0; Corn plant response rating ([7]; 500 g ai/ha): 0; Plant response rating, Foxtail, Giant [8, 20]: 0; Foxtail, Giant plant response rating [8, 13]: 60; Plant response rating, Foxtail, Giant [8, 15]: 60; Plant response rating, Pigweed [9, 20]: 90; Pigweed plant response rating [9, 13]: 90; Plant response rating, Pigweed [9, 15]: 90; Ryegrass, Italian plant response rating [10, 13]: 60; Plant response rating, Ryegrass, Italian [10, 15]: 50
